Laboratory results taken from ChEMBL document CHEMBL3797093, “Optimization of amide-based EP3 receptor antagonists” (Bioorg Med Chem Lett, 2016).

test system: not listed separately; test: Apparent intrinsic clearance in human liver microsomes in presence of NADPH; format: ADME; conditions: read-out: CLH(app)

Row | microsomal CLint [µL/min/mg] | CLint scaled [mL/min/kg] | SMILES
1 | < 8 | – | CCn1ncc2c(F)cc(C(=O)Nc3nnc(C4(C)CN(C(C)=O)C4)s3)cc21
2 | < 8.6 | – | CCn1ncc2c(F)cc(C(=O)Nc3nnc(C4(C)CCN(C(C)=O)CC4)s3)cc21
3 | 10.9 | – | CCn1ncc2c(Cl)cc(C(=O)Nc3nnc(C4CC4)s3)cc21
4 | < 8 | – | CCn1ncc2c(F)cc(C(=O)Nc3nnc(C4(C)CCN(C(=O)C(C)O)CC4)s3)cc21 (racemic)
5 | < 8 | – | CCn1ncc2c(F)cc(C(=O)Nc3nnc(C4(C)CCN(C(=O)CO)CC4)s3)cc21
6 | < 8 | – | CCn1ncc2c(F)cc(C(=O)Nc3nnc(C4(C)CCN(C(C)=O)C4)s3)cc21 (racemic)
7 | 20 | – | CCn1ncc2c(F)cc(C(=O)Nc3nnc(C4(C)CCN(C(=O)C(C)(C)O)CC4)s3)cc21
8 | < 8 | – | CCn1ncc2ccc(C(=O)Nc3nnc(C4CC4)s3)cc21
9 | 8.6 | – | CCn1ncc2c(F)cc(C(=O)Nc3nnc(C4CC4)s3)cc21

Second part, the compound before the results:

Row | SMILES | microsomal CLint [µL/min/mg] | CLint scaled [mL/min/kg]
10 | Cn1ncc2cc(C(=O)Nc3nnc(C4CC4)s3)ccc21 | 21.3 | –
11 | Cn1ncc2ccc(C(=O)Nc3nnc(C4CC4)s3)cc21 | < 8 | –
12 | CC(C)n1ncc2ccc(C(=O)Nc3nnc(C4CC4)s3)cc21 | 13.2 | –
13 | Cn1ncc2ncc(C(=O)Nc3nnc(C4CC4)s3)cc21 | < 8 | –
14 | CCN1CCOc2ccc(C(=O)Nc3nnc(-c4c(Cl)cccc4Cl)s3)cc21 | – | 39
15 | CCN1CCOc2ccc(C(=O)Nc3nnc(C4CC4)s3)cc21 | 25 | –

test system: Hepatocyte; test: Drug metabolism in human hepatocytes assessed as N-(5-(2,6-dichlorophenyl)-1,3,4-thiadiazol-2-yl)-3-(ethylamino)-4-hydroxybenzamide formation; format: ADME, cell-based; conditions: not given

Row | Drug metabolism | SMILES
16 | metabolite_detected | CCN1CCOc2ccc(C(=O)Nc3nnc(-c4c(Cl)cccc4Cl)s3)cc21

test system: Hepatocyte; test: Drug level in human hepatocytes treated with GSK; format: ADME, cell-based; conditions: not given

Row | Drug metabolism | SMILES
17 | metabolite_detected | CCN1CCOc2ccc(C(=O)O)cc21
18 | metabolite_detected | O=C(Nc1nnc(-c2c(Cl)cccc2Cl)s1)c1ccc2c(c1)N(CCO)CCO2
19 | metabolite_detected | CCNc1cc(C(=O)Nc2nnc(-c3c(Cl)cccc3Cl)s2)ccc1O

test system: Hepatocyte; test: Drug metabolism in human hepatocytes assessed as 4-ethyl-3,4-dihydro-2H-benzo[b][1,4]oxazine-6-carboxylic acid formation; format: ADME, cell-based; conditions: not given

Row | Drug metabolism | SMILES
20 | metabolite_detected | CCN1CCOc2ccc(C(=O)Nc3nnc(-c4c(Cl)cccc4Cl)s3)cc21

test system: not listed separately; test: Intrinsic clearance in human hepatocytes; format: ADME, cell-based, Hepatocyte; conditions: read-out: CLH

Row | CLint scaled [mL/min/kg] | SMILES
21 | 59 | CCN1CCOc2ccc(C(=O)Nc3nnc(-c4c(Cl)cccc4Cl)s3)cc21

test system: Hepatocyte; test: Drug metabolism in human hepatocytes assessed as N-(5-(2,6-dichlorophenyl)-1,3,4-thiadiazol-2-yl)-4-(2-hydroxyethyl)-3,4-dihydro-2H-benzo[b][1,4]oxazine-6-carboxamide formation; format: ADME, cell-based; conditions: not given

Row | Drug metabolism | SMILES
22 | metabolite_detected | CCN1CCOc2ccc(C(=O)Nc3nnc(-c4c(Cl)cccc4Cl)s3)cc21
